This is an account of results in publication PMC6837340, “Streptococcal phosphotransferase system imports unsaturated hyaluronan disaccharide derived from host extracellular matrices” (PLoS ONE, 2019).

In series [1] the target is T1, GAG-PTS (EIIABCD; phosphotransferase system for import of unsaturated hyaluronan disaccharide) (Streptococcus agalactiae, UniProt Q8DXF2+Q8DXF3).
T1 construct: gene SAG1899; native complex in toluene-permeabilized wild-type S. agalactiae cells; endogenous EI and HPr also required; EIIA dimer in crystal, 144 residues; with PTS mannose family transporter subunit IIA (EIIA)
The series is described as follows: PTS assay: pyruvate from phosphoenolpyruvate, lactate dehydrogenase-coupled NADH oxidation at […] nm, toluene-treated cells. To be noted: 10 mM sugar, 5 mM phosphoenolpyruvate, 5 mM MgCl2, 10 mM NaF, 0.1 M potassium phosphate pH 7.5, 37°C; EIIB-EIIC-EIID deletion mutant as control. It counts as cell-based.

Series [2] concerns the molecule itself. Kind of series: crystal structure; sitting drop vapor diffusion, 20% PEG 3,350, 0.2 M sodium thiocyanate pH 6.9, 20°C; space group P1, six molecules in the asymmetric unit; biological unit judged a dimer with PISA software.

T1 sequence (Q8DXF1 entry or part of it, one chain of several, further chain): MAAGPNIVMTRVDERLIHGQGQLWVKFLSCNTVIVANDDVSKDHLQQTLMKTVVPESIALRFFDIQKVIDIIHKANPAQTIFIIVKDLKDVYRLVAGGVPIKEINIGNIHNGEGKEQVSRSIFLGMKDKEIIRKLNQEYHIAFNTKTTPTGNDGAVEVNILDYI
T1 sequence (Q8DXF2 entry or part of it, one chain of several): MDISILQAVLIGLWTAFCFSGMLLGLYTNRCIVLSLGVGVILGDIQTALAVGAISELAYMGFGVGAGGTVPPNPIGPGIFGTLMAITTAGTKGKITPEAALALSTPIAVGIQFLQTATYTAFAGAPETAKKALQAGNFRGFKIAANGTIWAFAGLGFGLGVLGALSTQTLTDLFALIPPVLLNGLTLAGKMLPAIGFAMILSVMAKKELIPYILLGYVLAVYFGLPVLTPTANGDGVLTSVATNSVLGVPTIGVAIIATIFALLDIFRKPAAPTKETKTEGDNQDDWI
T1 sequence (Q8DXF3 entry or part of it, one chain of several): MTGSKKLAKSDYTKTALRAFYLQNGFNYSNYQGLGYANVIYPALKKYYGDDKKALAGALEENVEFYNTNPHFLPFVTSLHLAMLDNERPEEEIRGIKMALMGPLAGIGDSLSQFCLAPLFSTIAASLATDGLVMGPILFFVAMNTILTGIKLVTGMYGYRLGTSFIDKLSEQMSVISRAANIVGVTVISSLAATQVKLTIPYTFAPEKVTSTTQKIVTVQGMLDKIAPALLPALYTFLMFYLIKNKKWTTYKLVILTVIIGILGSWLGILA

Turning to `CC(=O)N[C@H]1C(O)O[C@H](CO)[C@@H](O)[C@@H]1O[C@@H]1OC(C(=O)O)=C[C@H](O)[C@H]1O` (some centres unmarked) [ΔHA, unsaturated hyaluronan disaccharide], the “PTS assay: pyruvate from phosphoenolpyruvate, lactate dehydrogenase-coupled NADH” value in series [1] is listed as “S. agalactiae imports unsaturated hyaluronan disaccharide using the GAG-PTS encoded in the GAG genetic cluster”.

B1: Streptococcus agalactiae GAG-PTS EIIA^ΔHA (EIIA for unsaturated hyaluronan disaccharide) (natural protein)
chain: MIKIIIVAHGNFPDGILSSLELIAGHQEYVVGINFIAGMSSNDVRVALQREVIDFKEILVLTDLLGGTPFNVSSALSVEYTDKKIKVLSGLNLSMLMEAVLSRTMFEHVDDLVDKVITSSHEGIVDFSTCLATQTAEATFEGGI
notes: PTS EIIA component of the GAG genetic cluster, gene gbs1890, Streptococcus agalactiae (gbs = strain NEM316); 144 residues (Met1-Ile144); Leu131-Ile144 not seen in the crystal structure; Cloned between NdeI and XhoI of pET21b with a reverse primer without a stop codon, so a C-terminal vector-derived His tag is likely (surmised); No PDB id is printed for the structure solved here; also called …
With B1, the “stoichiometry N” value in series [2] was found to be 2.

In general, stoichiometry N refers to the number of molecules, sites or subunits per partner or assembly.
